From US20260356819A1, “OXOISOINDOLINYL-SUBSTITUTED […] DERIVATIVE AND USE THEREOF” (GLUETACS THERAPEUTICS (SHANGHAI) CO., LTD., priority 2023, published 2026) come the findings set out here.

Holding throughout (format): cell-based
Holding throughout (conditions): compounds at 50 nM and 500 nM

For one assay, the target named is T1, GSPT1 (Homo sapiens, UniProt P15170+Q96SW2).
T1 construct: The supernatant was aspirated as the extracted total cell protein; endogenous in cells; host or cells: human peripheral blood mononuclear cells (hPBMCs)
Put plainly: Western blot degradation of GSPT1 in hPBMCs (24 h). The method in brief:
(§1)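 Immunoblot densitometry quantifies target loss in hPBMCs after a 24 h compound exposure (50 nM, 500 nM). Percent remaining is normalised band intensity; DC50 is the concentration giving half the DMSO-control band grayscale.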

The target of another assay is T2, WEE1 (Homo sapiens, UniProt P30291+Q96SW2).
T2 construct: The supernatant was aspirated as the extracted total cell protein; endogenous in cells; host or cells: human peripheral blood mononuclear cells (hPBMCs)
Kind of assay: Western blot degradation of WEE1 in hPBMCs (24 h). The method in brief:
as §1
(In general: In western blotting, separated proteins are transferred to a membrane and probed.)

Another assay has as its target T3, CK1α (Homo sapiens, UniProt P48729+Q96SW2).
T3 construct: The supernatant was aspirated as the extracted total cell protein; endogenous in cells; host or cells: human peripheral blood mononuclear cells (hPBMCs)
Kind of assay: Western blot degradation of CK1α in hPBMCs (24 h). Summed up:
as §1

Another assay concerns the target T4, IKZF1 (Homo sapiens, UniProt Q13422+Q96SW2).
T4 construct: The supernatant was aspirated as the extracted total cell protein; endogenous in cells; host or cells: human peripheral blood mononuclear cells (hPBMCs)
Put plainly: Western blot degradation of IKZF1 in hPBMCs (24 h). The method in brief: as §1

For another assay, the target named is T5, IKZF2 (Homo sapiens, UniProt Q96SW2+Q9UKS7).
T5 construct: The supernatant was aspirated as the extracted total cell protein; endogenous in cells; host or cells: human peripheral blood mononuclear cells (hPBMCs)
Put plainly: Western blot degradation of IKZF2 in hPBMCs (24 h). Summed up: as §1

Another assay addresses T6, IKZF3 (Homo sapiens, UniProt Q96SW2+Q9UKT9).
T6 construct: The supernatant was aspirated as the extracted total cell protein; endogenous in cells; host or cells: human peripheral blood mononuclear cells (hPBMCs)
Kind of assay: Western blot degradation of IKZF3 in hPBMCs (24 h). Summed up:
as §1

T2 sequence (P30291 whole entry): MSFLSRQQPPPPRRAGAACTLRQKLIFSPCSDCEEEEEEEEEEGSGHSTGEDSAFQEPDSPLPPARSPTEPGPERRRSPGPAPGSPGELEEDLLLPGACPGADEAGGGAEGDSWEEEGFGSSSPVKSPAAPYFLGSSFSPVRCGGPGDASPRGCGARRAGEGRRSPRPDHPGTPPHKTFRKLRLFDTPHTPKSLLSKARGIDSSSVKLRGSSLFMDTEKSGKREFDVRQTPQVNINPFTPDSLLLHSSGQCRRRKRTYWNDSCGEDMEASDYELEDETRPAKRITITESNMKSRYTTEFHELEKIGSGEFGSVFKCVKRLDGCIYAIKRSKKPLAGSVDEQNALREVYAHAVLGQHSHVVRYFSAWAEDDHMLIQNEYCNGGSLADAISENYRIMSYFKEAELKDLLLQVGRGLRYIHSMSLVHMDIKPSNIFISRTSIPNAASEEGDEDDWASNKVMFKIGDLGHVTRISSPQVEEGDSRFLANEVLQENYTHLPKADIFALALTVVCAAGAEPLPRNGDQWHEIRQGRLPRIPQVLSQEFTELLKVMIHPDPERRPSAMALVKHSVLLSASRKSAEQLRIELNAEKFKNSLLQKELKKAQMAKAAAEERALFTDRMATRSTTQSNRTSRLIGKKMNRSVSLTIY
T2 sequence (Q96SW2 whole entry): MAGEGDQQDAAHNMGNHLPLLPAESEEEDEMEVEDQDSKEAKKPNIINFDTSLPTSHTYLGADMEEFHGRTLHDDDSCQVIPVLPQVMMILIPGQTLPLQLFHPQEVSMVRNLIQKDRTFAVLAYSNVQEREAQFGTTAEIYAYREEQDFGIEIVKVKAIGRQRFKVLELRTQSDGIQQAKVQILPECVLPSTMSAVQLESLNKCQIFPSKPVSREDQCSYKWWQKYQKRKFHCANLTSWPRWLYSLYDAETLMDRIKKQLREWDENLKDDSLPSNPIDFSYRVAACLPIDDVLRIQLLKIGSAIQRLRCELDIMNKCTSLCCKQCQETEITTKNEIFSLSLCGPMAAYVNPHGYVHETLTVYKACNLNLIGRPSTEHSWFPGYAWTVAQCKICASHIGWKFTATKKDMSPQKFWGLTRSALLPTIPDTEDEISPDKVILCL
T2 sequence (Q16531 whole entry partner): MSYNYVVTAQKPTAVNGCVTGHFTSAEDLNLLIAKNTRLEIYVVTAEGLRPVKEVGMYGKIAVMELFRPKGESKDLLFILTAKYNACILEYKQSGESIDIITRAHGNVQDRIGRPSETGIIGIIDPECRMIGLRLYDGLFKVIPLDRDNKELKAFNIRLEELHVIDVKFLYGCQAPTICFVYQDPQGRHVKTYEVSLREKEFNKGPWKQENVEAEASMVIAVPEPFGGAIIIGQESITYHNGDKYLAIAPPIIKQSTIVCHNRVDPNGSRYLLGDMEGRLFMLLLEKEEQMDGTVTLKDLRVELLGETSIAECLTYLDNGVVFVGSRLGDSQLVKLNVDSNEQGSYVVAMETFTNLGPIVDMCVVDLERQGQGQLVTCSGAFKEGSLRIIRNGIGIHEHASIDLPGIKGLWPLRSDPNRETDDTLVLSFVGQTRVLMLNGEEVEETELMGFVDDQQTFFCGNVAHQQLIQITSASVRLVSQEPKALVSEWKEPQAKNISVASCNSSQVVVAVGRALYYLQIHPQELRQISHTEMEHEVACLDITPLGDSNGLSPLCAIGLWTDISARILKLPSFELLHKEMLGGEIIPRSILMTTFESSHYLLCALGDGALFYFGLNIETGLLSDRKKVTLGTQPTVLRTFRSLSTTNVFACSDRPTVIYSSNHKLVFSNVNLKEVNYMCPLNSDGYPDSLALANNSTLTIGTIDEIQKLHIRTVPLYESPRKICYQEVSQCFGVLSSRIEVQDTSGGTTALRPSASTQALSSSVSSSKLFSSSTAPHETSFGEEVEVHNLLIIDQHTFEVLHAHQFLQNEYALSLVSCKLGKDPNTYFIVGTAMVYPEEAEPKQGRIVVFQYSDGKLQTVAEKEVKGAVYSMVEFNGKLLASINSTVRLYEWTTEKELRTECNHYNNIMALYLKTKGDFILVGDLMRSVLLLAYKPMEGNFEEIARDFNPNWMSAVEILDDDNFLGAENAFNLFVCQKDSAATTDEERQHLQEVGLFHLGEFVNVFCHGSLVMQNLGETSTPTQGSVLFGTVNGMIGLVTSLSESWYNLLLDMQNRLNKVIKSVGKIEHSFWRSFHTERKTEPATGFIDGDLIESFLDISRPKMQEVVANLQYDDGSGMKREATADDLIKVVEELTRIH
T3 sequence (P48729 whole entry): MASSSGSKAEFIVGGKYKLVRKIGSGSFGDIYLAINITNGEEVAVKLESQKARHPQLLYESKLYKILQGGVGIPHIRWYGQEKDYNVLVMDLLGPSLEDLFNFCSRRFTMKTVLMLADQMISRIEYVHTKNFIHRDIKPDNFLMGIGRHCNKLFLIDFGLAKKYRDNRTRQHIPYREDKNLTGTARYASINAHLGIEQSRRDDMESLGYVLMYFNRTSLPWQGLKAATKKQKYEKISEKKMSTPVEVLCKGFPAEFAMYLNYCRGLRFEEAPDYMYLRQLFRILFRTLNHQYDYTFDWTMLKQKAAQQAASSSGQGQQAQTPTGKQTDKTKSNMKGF
T3 sequence (Q96SW2 whole entry): as the sequence (Q96SW2 whole entry) above
T3 sequence (Q16531 whole entry partner): as the sequence (Q16531 whole entry partner) above
T6 sequence (Q9UKT9 whole entry): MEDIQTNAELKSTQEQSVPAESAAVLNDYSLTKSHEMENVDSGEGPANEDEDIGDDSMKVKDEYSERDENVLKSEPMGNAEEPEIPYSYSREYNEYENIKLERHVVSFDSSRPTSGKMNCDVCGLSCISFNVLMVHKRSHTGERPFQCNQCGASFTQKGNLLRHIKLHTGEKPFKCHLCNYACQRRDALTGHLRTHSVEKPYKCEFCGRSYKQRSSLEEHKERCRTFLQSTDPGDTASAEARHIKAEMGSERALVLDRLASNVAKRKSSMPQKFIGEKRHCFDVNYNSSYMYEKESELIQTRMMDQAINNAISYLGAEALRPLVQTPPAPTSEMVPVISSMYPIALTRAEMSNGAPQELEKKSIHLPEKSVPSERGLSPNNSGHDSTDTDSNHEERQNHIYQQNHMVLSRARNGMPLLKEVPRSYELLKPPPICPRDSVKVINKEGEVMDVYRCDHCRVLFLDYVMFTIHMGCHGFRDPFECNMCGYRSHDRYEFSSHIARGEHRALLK
T6 sequence (Q96SW2 whole entry): as the sequence (Q96SW2 whole entry) above
T6 sequence (Q16531 whole entry partner): as the sequence (Q16531 whole entry partner) above
T1 sequence (P15170 whole entry): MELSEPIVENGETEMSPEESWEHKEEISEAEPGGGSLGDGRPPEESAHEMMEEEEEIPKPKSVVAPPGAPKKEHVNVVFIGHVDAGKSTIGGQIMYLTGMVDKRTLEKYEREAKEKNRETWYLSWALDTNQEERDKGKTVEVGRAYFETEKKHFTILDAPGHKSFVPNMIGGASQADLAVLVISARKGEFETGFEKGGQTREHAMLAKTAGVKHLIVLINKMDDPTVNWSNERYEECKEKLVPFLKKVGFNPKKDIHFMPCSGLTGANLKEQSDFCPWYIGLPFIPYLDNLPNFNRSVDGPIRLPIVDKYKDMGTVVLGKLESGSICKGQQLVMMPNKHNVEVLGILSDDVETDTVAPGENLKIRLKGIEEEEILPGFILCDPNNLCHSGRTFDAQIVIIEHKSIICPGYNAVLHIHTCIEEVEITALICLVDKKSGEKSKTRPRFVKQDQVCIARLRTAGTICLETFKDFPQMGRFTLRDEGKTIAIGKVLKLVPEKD
T1 sequence (Q96SW2 whole entry): as the sequence (Q96SW2 whole entry) above
T1 sequence (Q16531 whole entry partner): as the sequence (Q16531 whole entry partner) above
T4 sequence (Q13422 whole entry): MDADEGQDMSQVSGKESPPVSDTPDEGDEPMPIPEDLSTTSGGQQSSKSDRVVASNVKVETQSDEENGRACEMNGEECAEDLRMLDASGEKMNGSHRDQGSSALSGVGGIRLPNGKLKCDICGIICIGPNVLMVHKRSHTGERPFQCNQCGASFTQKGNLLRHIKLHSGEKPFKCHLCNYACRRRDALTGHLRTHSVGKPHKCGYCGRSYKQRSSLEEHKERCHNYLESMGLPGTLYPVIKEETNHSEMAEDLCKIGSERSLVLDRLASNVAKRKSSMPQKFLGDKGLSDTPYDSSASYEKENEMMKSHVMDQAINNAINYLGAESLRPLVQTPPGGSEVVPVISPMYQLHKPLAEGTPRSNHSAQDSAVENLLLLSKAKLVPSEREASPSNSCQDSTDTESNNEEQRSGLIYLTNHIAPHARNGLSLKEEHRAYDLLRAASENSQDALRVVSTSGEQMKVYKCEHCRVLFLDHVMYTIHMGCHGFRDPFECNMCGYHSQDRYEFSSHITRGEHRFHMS
T4 sequence (Q96SW2 whole entry): as the sequence (Q96SW2 whole entry) above
T4 sequence (Q16531 whole entry partner): as the sequence (Q16531 whole entry partner) above

For the compound `O=C1CCN(N2C(=O)c3ccc(CN4CCN(C(c5ccc(Cl)cc5)c5ccc(Cl)cc5)CC4)cc3C2=O)C(=O)N1` [GT-05269, 5-((4-(bis(4-chlorophenyl)methyl)piperazin-1-yl)methyl)-2-(2,4-dioxotetrahydropyrimidin-1(2H)-yl)isoindoline-1,3-dione], the “GSPT1 substrate protein remaining %” value at GSPT1 is given as “A (0% ≤ substrate protein remaining % ≤80%)”. Further, at WEE1, the “WEE1 substrate protein remaining %” value is on record as “B (80%< substrate protein remaining % ≤100%)”. Besides, at CK1α, the “CK1α substrate protein remaining %” value is recorded as “A (0% ≤ substrate protein remaining % ≤80%)”. In addition, the “IKZF1 substrate protein remaining %” value on IKZF1 is on record as “B (80%< substrate protein remaining % ≤100%)”. In addition, at IKZF2, the “IKZF2 substrate protein remaining %” value is on record as “B (80%< substrate protein remaining % ≤100%)”. In addition, at IKZF3, the “IKZF3 substrate protein remaining %” value is “B (80%< substrate protein remaining % ≤100%)”.
Regarding `Cc1nc(C2CCN(Cc3ccc4c(c3)C(=O)N(N3CCC(=O)NC3=O)C4=O)CC2)c2ccsc2n1` [GT-05272, 2-(2,4-dioxotetrahydropyrimidin-1(2H)-yl)-5-((4-(2-methylthieno[2,3-d]pyrimidin-4-yl)piperidin-1-yl)methyl)isoindoline-1,3-dione], on GSPT1, the “GSPT1 substrate protein remaining %” value is reported as “B (80%< substrate protein remaining % ≤100%)”. Moreover, the “WEE1 substrate protein remaining %” value on WEE1 is reported as “B (80%< substrate protein remaining % ≤100%)”. Further, the “CK1α substrate protein remaining %” value on CK1α is listed as “B (80%< substrate protein remaining % ≤100%)”. Further, the “IKZF1 substrate protein remaining %” value on IKZF1 was “B (80%< substrate protein remaining % ≤100%)”. For the same compound, the “IKZF2 substrate protein remaining %” value at IKZF2 is “A (0% ≤ substrate protein remaining % ≤80%)”. Also, the “IKZF3 substrate protein remaining %” value on IKZF3 is “B (80%< substrate protein remaining % ≤100%)”.
Turning to `Cc1sc2ncnc(C3=CCN(Cc4ccc5c(c4)C(=O)N(N4CCC(=O)NC4=O)C5=O)CC3)c2c1C` [GT-05273, 5-((4-(5,6-dimethylthieno[2,3-d]pyrimidin-4-yl)-3,6-dihydropyridin-1(2H)-yl)methyl)-2-(2,4-dioxotetrahydropyrimidin-1(2H)-yl)isoindoline-1,3-dione], the “GSPT1 substrate protein remaining %” value at GSPT1 is reported as “B (80%< substrate protein remaining % ≤100%)”. Further, the “WEE1 substrate protein remaining %” value on WEE1 is “B (80%< substrate protein remaining % ≤100%)”. In addition, the “CK1α substrate protein remaining %” value at CK1α is recorded as “B (80%< substrate protein remaining % ≤100%)”. In addition, the “IKZF1 substrate protein remaining %” value on IKZF1 is on record as “B (80%< substrate protein remaining % ≤100%)”. The “IKZF2 substrate protein remaining %” value on IKZF2 was “A (0% ≤ substrate protein remaining % ≤80%)”. Moreover, on IKZF3, the “IKZF3 substrate protein remaining %” value is “B (80%< substrate protein remaining % ≤100%)”.
Regarding `Cn1cc(C2=CCN(Cc3ccc4c(c3)C(=O)N(N3CCC(=O)NC3=O)C4=O)CC2)c2ccc(F)cc21` [GT-05276, 2-(2,4-dioxotetrahydropyrimidin-1(2H)-yl)-5-((4-(6-fluoro-1-methyl-1H-indol-3-yl)-3,6-dihydropyridin-1(2H)-yl)methyl)isoindoline-1,3-dione], the “GSPT1 substrate protein remaining %” value at GSPT1 is given as “A (0% ≤ substrate protein remaining % ≤80%)”. The “WEE1 substrate protein remaining %” value on WEE1 was “B (80%< substrate protein remaining % ≤100%)”. Also, the “CK1α substrate protein remaining %” value on CK1α is given as “B (80%< substrate protein remaining % ≤100%)”. For the same compound, the “IKZF1 substrate protein remaining %” value at IKZF1 was “B (80%< substrate protein remaining % ≤100%)”. Besides, the “IKZF2 substrate protein remaining %” value on IKZF2 was “B (80%< substrate protein remaining % ≤100%)”. At IKZF3, the “IKZF3 substrate protein remaining %” value is reported as “A (0% ≤ substrate protein remaining % ≤80%)”.
`Cc1ccc(N2CCN(Cc3ccc4c(c3)C(=O)N(N3CCC(=O)NC3=O)C4=O)CC2)s1` [GT-05309, 2-(2,4-dioxotetrahydropyrimidin-1(2H)-yl)-5-((4-(5-methylthiophen-2-yl)piperazin-1-yl)methyl)isoindoline-1,3-dione]: the “GSPT1 substrate protein remaining %” value at GSPT1 is reported as “A (0% ≤ substrate protein remaining % ≤80%)”. Moreover, at WEE1, the “WEE1 substrate protein remaining %” value is recorded as “B (80%< substrate protein remaining % ≤100%)”. At CK1α, the “CK1α substrate protein remaining %” value is “B (80%< substrate protein remaining % ≤100%)”. On IKZF1, the “IKZF1 substrate protein remaining %” value was “B (80%< substrate protein remaining % ≤100%)”. In addition, the “IKZF2 substrate protein remaining %” value on IKZF2 is on record as “B (80%< substrate protein remaining % ≤100%)”. In addition, the “IKZF3 substrate protein remaining %” value at IKZF3 is “B (80%< substrate protein remaining % ≤100%)”.
On to `Cc1ccc(C2=CCN(Cc3ccc4c(c3)C(=O)N(N3CCC(=O)NC3=O)C4=O)CC2)s1` [GT-05310, 2-(2,4-dioxotetrahydropyrimidin-1(2H)-yl)-5-((4-(5-methylthiophen-2-yl)-3,6-dihydropyridin-1(2H)-yl)methyl)isoindoline-1,3-dione], for which the “GSPT1 substrate protein remaining %” value on GSPT1 is reported as “A (0% ≤ substrate protein remaining % ≤80%)”. Moreover, the “WEE1 substrate protein remaining %” value on WEE1 is given as “B (80%< substrate protein remaining % ≤100%)”. Moreover, the “CK1α substrate protein remaining %” value on CK1α is listed as “B (80%< substrate protein remaining % ≤100%)”. Further, the “IKZF1 substrate protein remaining %” value on IKZF1 is “B (80%< substrate protein remaining % ≤100%)”. The “IKZF2 substrate protein remaining %” value on IKZF2 is given as “B (80%< substrate protein remaining % ≤100%)”. Also, the “IKZF3 substrate protein remaining %” value on IKZF3 is “B (80%< substrate protein remaining % ≤100%)”.
Take `O=C1CCN(N2C(=O)c3ccc(CN4CCN(c5ccsc5)CC4)cc3C2=O)C(=O)N1` [GT-05313, 2-(2,4-dioxotetrahydropyrimidin-1(2H)-yl)-5-((4-(thiophen-3-yl)piperazin-1-yl)methyl)isoindoline-1,3-dione]: the “GSPT1 substrate protein remaining %” value on GSPT1 is “A (0% ≤ substrate protein remaining % ≤80%)”. Further, the “WEE1 substrate protein remaining %” value at WEE1 is “B (80%< substrate protein remaining % ≤100%)”. In addition, the “CK1α substrate protein remaining %” value at CK1α is “B (80%< substrate protein remaining % ≤100%)”. Besides, the “IKZF1 substrate protein remaining %” value at IKZF1 is listed as “B (80%< substrate protein remaining % ≤100%)”. The “IKZF2 substrate protein remaining %” value on IKZF2 is on record as “B (80%< substrate protein remaining % ≤100%)”. Besides, the “IKZF3 substrate protein remaining %” value at IKZF3 was “B (80%< substrate protein remaining % ≤100%)”.
For the compound `Cc1cscc1C1CCN(Cc2ccc3c(c2)C(=O)N(N2CCC(=O)NC2=O)C3=O)CC1` [GT-05314, 2-(2,4-dioxotetrahydropyrimidin-1(2H)-yl)-5-((4-(4-methylthiophen-3-yl)piperidin-1-yl)methyl)isoindoline-1,3-dione], the “GSPT1 substrate protein remaining %” value on GSPT1 is reported as “A (0% ≤ substrate protein remaining % ≤80%)”. In addition, the “WEE1 substrate protein remaining %” value on WEE1 is listed as “B (80%< substrate protein remaining % ≤100%)”. The “CK1α substrate protein remaining %” value on CK1α is “B (80%< substrate protein remaining % ≤100%)”. Also, at IKZF1, the “IKZF1 substrate protein remaining %” value is recorded as “B (80%< substrate protein remaining % ≤100%)”. For the same compound, on IKZF2, the “IKZF2 substrate protein remaining %” value was “B (80%< substrate protein remaining % ≤100%)”. In addition, the “IKZF3 substrate protein remaining %” value on IKZF3 is given as “B (80%< substrate protein remaining % ≤100%)”.
For the compound `O=C1CCN(N2C(=O)c3ccc(CN4CCC(c5ccco5)CC4)cc3C2=O)C(=O)N1` [GT-05315, 2-(2,4-dioxotetrahydropyrimidin-1(2H)-yl)-5-((4-(furan-2-yl)piperidin-1-yl)methyl)isoindoline-1,3-dione], the “GSPT1 substrate protein remaining %” value at GSPT1 is “A (0% ≤ substrate protein remaining % ≤80%)”. The “WEE1 substrate protein remaining %” value at WEE1 is given as “B (80%< substrate protein remaining % ≤100%)”. For the same compound, on CK1α, the “CK1α substrate protein remaining %” value is recorded as “B (80%< substrate protein remaining % ≤100%)”. On IKZF1, the “IKZF1 substrate protein remaining %” value is “B (80%< substrate protein remaining % ≤100%)”. Moreover, at IKZF2, the “IKZF2 substrate protein remaining %” value was “B (80%< substrate protein remaining % ≤100%)”. For the same compound, on IKZF3, the “IKZF3 substrate protein remaining %” value was “B (80%< substrate protein remaining % ≤100%)”.
On to `Cc1cscc1C1=CCN(Cc2ccc3c(c2)C(=O)N(N2CCC(=O)NC2=O)C3=O)CC1` [GT-05316, 2-(2,4-dioxotetrahydropyrimidin-1(2H)-yl)-5-((4-(4-methylthiophen-3-yl)-3,6-dihydropyridin-1(2H)-yl)methyl)isoindoline-1,3-dione], for which the “GSPT1 substrate protein remaining %” value on GSPT1 was “A (0% ≤ substrate protein remaining % ≤80%)”. Moreover, the “WEE1 substrate protein remaining %” value on WEE1 is “B (80%< substrate protein remaining % ≤100%)”. Further, the “CK1α substrate protein remaining %” value on CK1α is “B (80%< substrate protein remaining % ≤100%)”. Also, the “IKZF1 substrate protein remaining %” value at IKZF1 is given as “B (80%< substrate protein remaining % ≤100%)”. Also, on IKZF2, the “IKZF2 substrate protein remaining %” value was “B (80%< substrate protein remaining % ≤100%)”. For the same compound, the “IKZF3 substrate protein remaining %” value at IKZF3 is reported as “B (80%< substrate protein remaining % ≤100%)”.
Take `O=C1CCN(N2C(=O)c3ccc(CN4CC=C(c5ccco5)CC4)cc3C2=O)C(=O)N1` [GT-05317, 2-(2,4-dioxotetrahydropyrimidin-1(2H)-yl)-5-((4-(furan-2-yl)-3,6-dihydropyridin-1(2H)-yl)methyl)isoindoline-1,3-dione]: the “GSPT1 substrate protein remaining %” value on GSPT1 is on record as “A (0% ≤ substrate protein remaining % ≤80%)”. For the same compound, at WEE1, the “WEE1 substrate protein remaining %” value was “B (80%< substrate protein remaining % ≤100%)”. Further, at CK1α, the “CK1α substrate protein remaining %” value is “B (80%< substrate protein remaining % ≤100%)”. The “IKZF1 substrate protein remaining %” value on IKZF1 is “B (80%< substrate protein remaining % ≤100%)”. Moreover, at IKZF2, the “IKZF2 substrate protein remaining %” value is on record as “B (80%< substrate protein remaining % ≤100%)”. For the same compound, the “IKZF3 substrate protein remaining %” value on IKZF3 is listed as “B (80%< substrate protein remaining % ≤100%)”.
